Measurements: patent publication US6709681B2, “Acidified nitrite as an antimicrobial agent” (Aberdeen University, priority 1995, dated 2004)
Read-outs that look alike come from different tables or passages of the source.

Tests used:
[1] = system: caries-producing organisms in dental plaque; C albicans; details: toothpaste, mouthwash or other orally acceptable vehicle
[2] = 45 minutes after ingestion of 200 mg potassium nitrate solution; fasting mean 114 μM
C albicans = system: C albicans
Description: With reference to FIG. 1 a single colony of C albicans was used to inoculate an overnight culture in Sabouraud's broth. 10 μl of this broth was added to 940 μl of a citrate/phosphate buffered Sabouraud's broth to which was added sodium nitrite (50 μl; final concentration 250 μM) or distilled water as a control. After one hour incubation at 37° C., 10 μl was removed and cultured in 190 μl standard Sabourauds broth with continual agitation (Gallenkamp orbital incubator) in a 96-well microtitre plate at 37° C. Growth was monitored by measurement of optical density at 570 nm at regular time intervals. The results are a mean of 16 separate experiments.
The open bars show the growth of C albicans measured by the optical density method following exposure to acid alone for 1 hour, while the closed bars show growth following exposure to acid and 250 μM sodium nitrite.

[3] = system: E coli (strain NCTC 10418)
From the text: The results shown in FIGS. 2A and 2B are a mean of 20 experiments.
The methods are those as for FIG. 2.

Structure (SMILES)	reduction of caries-producing organisms in dental plaque / treatment or prevention of infection with C albicans [1]	salivary nitrite (mean) [2] [µM]	killing of C albicans (C albicans; 5 nN nitrite, up to pH5)	survival of C albicans (growth by optical density) (C albicans; 250 μgM sodium nitrite, one hour, pH reduced to below 4)	elimination of C albicans (C albicans; pH 1, all concentrations above 250 μM (data not shown))	effect on E coli ([3]; 250 μM nitrite, above pH4)	growth of E coli compared with control (acid alone) ([3]; 250 μM nitrite, pH 2, 3 and 4)	survival of E coli ([3]; 250 μM nitrite, pH2, one hour)	viability of E coli ([3]; 250 μM nitrite, pH3 and pH4)	toxic effect on E coli ([3]; pH3, 10 μM)	toxic effect on E coli ([3]; pH3, 1 mM)
O=[N+]([O-])O [nitrate]	effective										
O=[N+]([O-])[O-].[K+] [potassium nitrate]		1030									
O=NO [sodium nitrite]	effective		killed C albicans	incrementally killed C albicans	effective in eliminating C albicans	no effect	significantly (p<0.05) impaired	eliminates E coli	significantly reduces the viability	discernable effect	killed E coli completely
